# Assay results published in PubChem BioAssay AID2060886 (Molecular Pharmacology Branch, DTP, NCI, 2025).
# Test system: 653999-131-R-J2-PDC complex spheroids, growth inhibition
# Experiment: Anticancer human tumor 653999-131-R-J2-PDC patient-derived lung adenocarcinoma cell line growth inhibition [RAS]
# Conditions: for viability, T/C: stronger effect = lower value
# Text: RAS pathway inhibitors in Combinations in Complex Spheroids
# A high-throughput screen of multi-cell type tumor spheroids was designed to identify active combinations of RAS pathway inhibitors and targeted small molecules. Complex spheroids include a stromal component modeled by human endothelial cells (HUVEC) and fibroblasts modeled by human mesenchymal stem cells (MSCs). The concentration ranges selected for each drug and investigational agent were based upon clinically achievable concentrations if the clinical Cmax of the agent was known.
# Compounds. The drugs and investigational agents: abemaciclib (NSC768073), cobimetinib (NSC768068), divarasib (GDC6063, NSC841802), docetaxel (NSC628503), GDC-1971 (RLY-1971, NSC841576), gemcitabine (NSC613327), inavolisib (NSC800729), ipatasertib (NSC767898), KB-0742 (NSC834161), MRTX-1133 (NSC836407), osimertinib (NSC779217), RMC-4630 (NSC839698), RMC-6236 (NSC851965), RMC-6291 (NSC852671), Ro-3306 (NSC812927), sapanisertib (NSC764658), SN-38 (NSC673596), staurosporine (NSC755774), SY5609 (NSC837396), and tovorafenib (DAY101, NSC766906), were obtained from the National Cancer Institute (NCI) Developmental Therapeutics Program Chemical Repository. The FDA-approved anticancer drug set is available from the NCI Developmental Therapeutics Program. […] The stock solutions were prepared in dimethyl sulfoxide (DMSO, Sigma-Aldrich, St. Louis, MO, cat. D2650) at 800-fold the tested concentration and stored at -70 degrees C prior to their use. All drugs and investigational agents were tested over a range starting from a high concentration at or near the clinical Cmax and decreasing in half-log increments. If the clinical Cmax for an agent had not been determined, the highest concentration tested was 10 microM.
# Cell Culture. All cells were maintained in an incubator at 37 degrees C and 5% CO2 with 95% humidity. The PDC lines were cultured according to standard operating procedures established by the NCI PDMR. All PDCs were thawed and cultured in Matrigel-coated flasks prepared with a working solution of 1X Ham's F-12 nutrient mix, without supplementation (Invitrogen, Waltham, MA, cat. 11765054), 100 U/mL penicillin-streptomycin (Invitrogen, cat. 15140122), and 2.5% Matrigel (Corning Inc., Corning, NY, cat. 354248) for the first three passages. The 362531-283-R-J2-PDC and 782815-120-R-J1-PDC lines were cultured in 6C/Colon 1B media, which includes advanced DMEM/F-12 (Thermo Fisher Scientific, cat. 12634028), 10 mM HEPES (Thermo Fisher Scientific, cat. 15630080), 1X GlutaMAX supplement (Thermo Fisher Scientific, cat. 35050061), 0.1 mg/mL primocin (InvivoGen, San Diego, CA, cat. ant-pm-2), 10% defined fetal bovine serum, heat inactivated (HyClone Laboratories Inc., Logan, UT, cat. SH30070.03HI), 50% L-WRN conditioned media (ATCC, cat. CRL-3276), 1.25 mM N-Acetyl-L-cysteine (Sigma-Aldrich, cat. A9165), 10 mM nicotinamide (Sigma-Aldrich, cat. N0636), 1X B-27 supplement (Thermo Fisher Scientific, cat. 17504044), 1X N-2 supplement (Thermo Fisher Scientific, cat. 17502048), 50 ng/mL human EGF (Thermo Fisher Scientific, cat. PHG0311), and 10 microM Y-27632 dihydrochloride (Tocris Bioscience, cat. 1254). The K12877-001-R-J1-PDC line was cultured in 6I media, which includes all 6C/Colon 1B media plus 10 ng/mL human FGF-10 (PeproTech, cat. 100-26), 1 ng/mL human FGF-2 (PeproTech, cat. 100-18B), 1 µM prostaglandin E2 (Tocris Bioscience, cat. 2296), […] hydrocortisone (Sigma-Aldrich, cat. H4001), and […] bovine insulin (Sigma-Aldrich, cat. I6634). The K86415-001-R-J1-PDC line was cultured in 6D media, which includes all 6C/Colon 1B media components minus the L-WRN conditioned media. The 485176-168-R4-J1-PDC was cultured in PANC media, which includes all 6C/Colon 1B media plus 100 ng/mL human FGF-10 (PeproTech, cat. 100-26), 500 nM SB-431542 (Selleckchem, cat. S1067), and 10 nM gastrin (Tocris Bioscience, cat. 3006). […]
# [1] = curve of first compound, second compound 0.000949 µM
# [2] = curve of first compound, second compound 0.003 µM
# [3] = curve of first compound, second compound 0.00949 µM
# [4] = curve of first compound, second compound 0.03 µM
# [5] = curve of first compound, second compound 0.0949 µM
# [6] = curve of first compound, second compound 0.3 µM
# [7] = second compound 0.000949 µM, first compound 0.0316 µM
# [8] = second compound 0.000949 µM, first compound 0.1 µM
# [9] = second compound 0.000949 µM, first compound 0.316 µM
# [10] = second compound 0.000949 µM, first compound 1 µM
# [11] = second compound 0.000949 µM, first compound 3.16 µM
# [12] = second compound 0.000949 µM, first compound 10 µM
# [13] = second compound 0.003 µM, first compound 0.0316 µM
# [14] = second compound 0.003 µM, first compound 0.1 µM
# [15] = second compound 0.003 µM, first compound 0.316 µM
# [16] = second compound 0.003 µM, first compound 1 µM
# [17] = second compound 0.003 µM, first compound 3.16 µM
# [18] = second compound 0.003 µM, first compound 10 µM
# [19] = second compound 0.00949 µM, first compound 0.0316 µM
# [20] = second compound 0.00949 µM, first compound 0.1 µM
# [21] = second compound 0.00949 µM, first compound 0.316 µM
# [22] = second compound 0.00949 µM, first compound 1 µM
# [23] = second compound 0.00949 µM, first compound 3.16 µM
# [24] = second compound 0.00949 µM, first compound 10 µM
# [25] = second compound 0.03 µM, first compound 0.0316 µM
# [26] = second compound 0.03 µM, first compound 0.1 µM
# [27] = second compound 0.03 µM, first compound 0.316 µM
# [28] = second compound 0.03 µM, first compound 1 µM
# [29] = second compound 0.03 µM, first compound 3.16 µM
# [30] = second compound 0.03 µM, first compound 10 µM
# [31] = second compound 0.0949 µM, first compound 0.0316 µM
# [32] = second compound 0.0949 µM, first compound 0.1 µM
# [33] = second compound 0.0949 µM, first compound 0.316 µM
# [34] = second compound 0.0949 µM, first compound 1 µM
# [35] = second compound 0.0949 µM, first compound 3.16 µM
# [36] = second compound 0.0949 µM, first compound 10 µM
# [37] = second compound 0.3 µM, first compound 0.0316 µM
# [38] = second compound 0.3 µM, first compound 0.1 µM
# [39] = second compound 0.3 µM, first compound 0.316 µM
# [40] = second compound 0.3 µM, first compound 1 µM
# [41] = second compound 0.3 µM, first compound 3.16 µM
# [42] = second compound 0.3 µM, first compound 10 µM
# 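Also: spheroids exposed to the agents for seven days before the readout.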
smiles,measurement,setting,value
C[C@@H](NC(=O)c1ncnc(N)c1Cl)c1ncc(C(=O)Nc2cc(C(F)(F)F)c(Cl)cn2)s1 + CCn1c(-c2cccnc2C(C)OC)c2c3cc(ccc31)N1CCOC(CC(NC(=O)C(C(C)C)N(C)C(=O)C3(F)CCN(C(=O)C#CC(C)(C)N(C)C)CC3)C(=O)N3CCCC(N3)C(=O)OCC(C)(C)C2)C1,IC50,[1],> 10000 nM
same,IC50,[2],> 10000 nM
same,IC50,[3],> 10000 nM
same,IC50,[4],> 10000 nM
same,IC50,[5],> 10000 nM
same,IC50,[6],> 10000 nM
same,"viability, T/C",[7],95.5%
same,"viability, T/C",[8],123%
same,"viability, T/C",[9],95.5%
same,"viability, T/C",[10],101%
same,"viability, T/C",[11],106%
same,"viability, T/C",[12],83.6%
same,"viability, T/C",[13],105%
same,"viability, T/C",[14],104%
same,"viability, T/C",[15],126%
same,"viability, T/C",[16],104%
same,"viability, T/C",[17],100%
same,"viability, T/C",[18],73.7%
same,"viability, T/C",[19],113%
same,"viability, T/C",[20],115%
same,"viability, T/C",[21],119%
same,"viability, T/C",[22],112%
same,"viability, T/C",[23],108%
same,"viability, T/C",[24],94.8%
same,"viability, T/C",[25],111%
same,"viability, T/C",[26],109%
same,"viability, T/C",[27],107%
same,"viability, T/C",[28],107%
same,"viability, T/C",[29],100%
same,"viability, T/C",[30],95.3%
same,"viability, T/C",[31],113%
same,"viability, T/C",[32],97.3%
same,"viability, T/C",[33],121%
same,"viability, T/C",[34],107%
same,"viability, T/C",[35],121%
same,"viability, T/C",[36],91.5%
same,"viability, T/C",[37],104%
same,"viability, T/C",[38],98.9%
same,"viability, T/C",[39],93.4%
same,"viability, T/C",[40],121%
same,"viability, T/C",[41],101%
same,"viability, T/C",[42],85.9%
CC(Nc1ccc2c(c1)OCCn1cc(N3C(=O)OCC3C(F)F)nc1-2)C(N)=O (centres undefined) + CCn1c(-c2cccnc2C(C)OC)c2c3cc(ccc31)N1CCOC(CC(NC(=O)C(C(C)C)N(C)C(=O)C3(F)CCN(C(=O)C#CC(C)(C)N(C)C)CC3)C(=O)N3CCCC(N3)C(=O)OCC(C)(C)C2)C1,IC50,[1],772 nM
same,IC50,[2],502 nM
same,IC50,[3],544 nM
same,IC50,[4],473 nM
same,IC50,[5],510 nM
same,IC50,[6],442 nM
same,"viability, T/C",[7],85.2%
same,"viability, T/C",[8],79.2%
same,"viability, T/C",[9],66.4%
same,"viability, T/C",[10],44.6%
same,"viability, T/C",[11],29.4%
same,"viability, T/C",[12],20.1%
same,"viability, T/C",[13],88.3%
same,"viability, T/C",[14],70.8%
same,"viability, T/C",[15],59.3%
same,"viability, T/C",[16],38%
same,"viability, T/C",[17],30.1%
same,"viability, T/C",[18],20.3%
same,"viability, T/C",[19],99.2%
same,"viability, T/C",[20],71%
same,"viability, T/C",[21],60.3%
same,"viability, T/C",[22],43.7%
same,"viability, T/C",[23],26.8%
same,"viability, T/C",[24],21.9%
same,"viability, T/C",[25],83.3%
same,"viability, T/C",[26],69.6%
same,"viability, T/C",[27],56.8%
same,"viability, T/C",[28],37%
same,"viability, T/C",[29],33.2%
same,"viability, T/C",[30],20.5%
same,"viability, T/C",[31],85.8%
same,"viability, T/C",[32],73.7%
same,"viability, T/C",[33],57.2%
same,"viability, T/C",[34],40.1%
same,"viability, T/C",[35],29.3%
same,"viability, T/C",[36],23.9%
same,"viability, T/C",[37],92%
same,"viability, T/C",[38],67.5%
same,"viability, T/C",[39],53.5%
same,"viability, T/C",[40],41.2%
same,"viability, T/C",[41],29.4%
same,"viability, T/C",[42],18.3%
O=C(c1ccc(F)c(F)c1Nc1ccc(I)cc1F)N1CC(O)([C@@H]2CCCCN2)C1,"viability, T/C",compound 0.01 µM,77.5% [middle of 4 runs]
same,"viability, T/C",compound 0.1 µM,51.2% [middle of 4 runs]
same,"viability, T/C",compound 0.316 µM,28.2% [middle of 4 runs]
same,"viability, T/C",compound 1 µM,11.1% [middle of 4 runs]
same,IC50,curve of compound,112 nM [middle of 4 runs]
